Reference: patent US20260151360A1, “ENDOXIFEN COMPOSITIONS AND METHODS OF USE THEREOF AND SYNTHESIS THEREOF” (Atossa Therapeutics, Inc., priority 2023, published 2026)
Where two headings read alike, the source gives them in different places. One block for each compound: values may come before it.

Experiments:
[1] = Plasma pharmacokinetics of endoxifen after administration of the compositions; format: in vivo; conditions: for AUC(0-t): read-out: mean AUC24hr; for half-life: endoxifen released from a composition disclosed herein
[2] = (Z)-Endoxifen solubility in dissolution media (pH 6.8 buffer with and without Polysorbate 80); format: physicochemical
Method: This example describes development of a dissolution assay to measure dissolution of endoxifen formulations. […] Polysorbate 80 (PS80), a nonionic surfactant, was added in varying concentrations to improve solubility and mimic an intestinal environment. Surfactants, such as polysorbate 80, create micelles in the medium that mimic the bile acid aggregates in the small intestine. These micelles facilitate the diffusion and transport of product into the medium.

[3] = cited from earlier work

AUC(0-t) ([1]; human, plasma, Day 1 of initial (first) dose, composition comprising 1 mg to 4 mg of (Z)-endoxifen): 150 to 600 ng·h/mL | AUC(0-t) ([1]; human, plasma, Day 21, compositions comprising 1 mg to 4 mg of (Z)-endoxifen): 400 to 2500 ng·h/mL | AUC(0-inf) ([1]; human, plasma, dosing range of 1 mg to 4 mg of (Z)-endoxifen): 400 to 6000 ng·h/mL
Compound: CC/C(=C(\c1ccc(O)cc1)c1ccc(OCCNC)cc1)c1ccccc1 [(Z)-endoxifen]

day by which steady state plasma levels are achieved ([1]; daily administration of a composition): ≤ 7 days | half-life ([1]; human, plasma, read-out: mean half-life): 40 to 53 h | half-life ([1]; human, plasma, read-out: terminal elimination half-life): 30 to 60 h | solubility as a function of pH [2]: decreases as pH becomes less acidic
Compound: CC/C(=C(\c1ccc(O)cc1)c1ccc(OCCNC)cc1)c1ccccc1 [endoxifen, 4-hydroxy-N-desmethyl-tamoxifen]

Compound: CC/C(=C(\c1ccccc1)c1ccc(OCCN(C)C)cc1)c1ccccc1 [tamoxifen, (Z)-2-[4-(1,2-diphenyl-1-butenyl)phenoxy]-N,N-dimethylethanamine]
Terminal elimination half-life ([3]; Jordan C. Steroids 2007): 120 to 170 h | peak concentration time ([3]; post-dose): approximately 5 hours | Reported therapeutic levels of plasma tamoxifen ([3]; subjects dosed with 20 mg of oral tamoxifen (Lyon et al. 2012)): ≥ 30 nM
